Data: patent US20070172514A1, “Materials and methods for improving livestock productivity” (priority 2006, published 2007)
Marks after values point to notes of the source that are not given here.

What was measured:
[1] = test system: fattening pigs; test: Carcass composition/appearance of fattening pigs; type: in vivo, swine
Description: 72 piglets were divided evenly into control group and Cysteamine group. The control group was treated with basal diet while the Cysteamine group was treated with basal diet added with 150 g cysteamine hydrochloride per ton of feed. Upon reaching the market weight of 85-90 kg, five animals from each treatment were slaughtered after fasting for one day. During slaughter, the animals were stunned with a stunning gun, bled, dehaired and eviscerated. The carcass was split […] and then chilled for 24 hours prior to fabrication. The slaughter and the chilled carcass weights were recorded. The chilled carcass weight expressed as percentage of the slaughter weight represents the dressed yield. The wholesale and retail cuts of each animals were weighed and recorded. The values were expressed as the percentage of the live weight and of the chilled carcass weight.
The area of the longissimus dorsi (LD) muscle was measured on the 12th rib of the right part of the carcasses. This was done by tracing the outline of the whole LD muscle on acetate paper and the area was measured with the use of a grading method.

[2] = test system: Ximenta'er hybridizing beef cattle; test: Enhanced productivity in beef cattle; type: in vivo
Description: In the following example, the test animals were beef cattle (Ximenta'er hybridizing beef cattle). The experiment was performed at the Hebei Hengshui Geling Beef Cattle Raising Farm dur the period from Oct. 10 to Dec. 21, 2002. In total, 64 heads of around 350 kg Ximenta'er hybridizing beef cattle were selected and separated into 4 groups randomly according to the principle of equalizing age, weight, grace, fur/hair condition, etc. Each group had 16 heads of beef cattle. The Control Group, Test Group I, II & III were fed a composition comprising 0, 1.5, 3, 6 g/head/day of cysteamine HCl, respectively. As noted in Tables 8, 9, and 10 below, adding a cysteamine compound to the basal diet of beef cattle can increase daily weight gain.

[3] = test system: small-fat-tail sheep; test: Enhanced productivity in small-fat-tail sheep; type: in vivo; conditions: 35 days
Description: In the following example, the test animals were sheep (small-fat-tail sheep). The experiment was performed at the Goat Trial Farm of Beijing Shengshifumin Muslim Food Company during the thirty-five day period from Dec. 2, 2004 to Jan. 5, 2005. In total, 40 heads of small-fat-tail sheep with the average weight of 26.5 kg were randomly divided into Control group (20) and Cysteamine group (20). The control group was fed with basal diet only, while the Cysteamine group was fed a diet that included 900 g cysteamine HCl per tonnage of diet. The standard basal diet of the farm was employed for this trial.

[4] = test system: pregnant pig sow; test: Enhanced productivity in swine: pregnant sows fed cysteamine hydrochloride; type: in vivo, swine (D×L×M hybrid swine); design: Live piglet born rate, Improvement / Live piglet born rate, Improvement (%) / Birth weight per litter, Improvement: dose or concentration left out as unconfirmed; conditions: for Birth weight per litter, Improvement (%) / Birth weight per piglet, Improvement (%) / Body weight of weaned piglet, Improvement (%): hydrochloride
Source text: A total of 14 heads of pregnant pig sow (which were the offspring of Duroc×Landrace×Meishan swine, also referred to herein as D×L×M hybrid swine) (84 days of pregnant) were divided into 2 groups: Control group (6) and Cysteamine group (8). The Control group was fed with basal diet. […]

[5] = test system: D×L×M weanling piglets; test: Enhanced growth in swine: weanling piglets fed cysteamine hydrochloride; type: in vivo; conditions: 30 days; for ADG, Improvement (%): (text: 90 g per ton of feed), hydrochloride
Source text: Total of 100 heads of unhealthy D×L×M weanling piglets (approx. 6.78 kg) were divided into 2 groups—Control group (50 heads) & Cysteamine group (50 heads). The Control group was fed with basal diet. […]

[6] = test system: crossbreed sheep; test: Enhanced productivity in crossbreed sheep; type: in vivo; conditions: 35 days
[7] = test system: pig intestine villi; test: Intestine villi length and histology in pigs; type: in vivo, swine; conditions: 30 days
Description: 72 piglets were evenly divided into control group and Cysteamine group. The control group was treated with basal diet only, while the Cysteamine group was added with 150 g of cysteamine hydrochloride per ton of feed. The trial was lasted for 30 days.
Immediately after evisceration, tissue samples from the small intestine, large intestine, liver, and pancreas of pigs from each treatment group were collected. The collected samples were placed in properly labeled containers containing 10% buffered neutral formalin solution. The tissue samples were fixed for 78 hours before they were processed for routine histological examination using the paraffin embedding technique (well-known to the skilled artisan).
Sections approximately 5 to 6 μ thick were cut from paraffin blocked tissues using Optical 820 Rotary Microtome (Scientific Instruments Division, Buffalo, N.Y.). Some sections were stained with hematoxylin and eosin (H & E), others with Alcian blue. H & E stained sections were used for the examination of the general histology of the intestinal tract while the Alcian blue stained sections were used for goblet cells identification. The stained sections were examined under various magnifications using a light microscope.
The number and length (μm) of villi in the small intestine were counted per microscopic field; the thickness of the tunica muscularis in the small and large intestine were measured using American Optical Micrometer (American Optical Company, Buffalo, N.Y.) calibrated in millimeters. The mucosal folds in the large intestine, the density of intestinal glands (crypts), the appearance of the surface epithelium were all observed. The general histology of the liver and pancreas were examined and compared between Cysteamine treated and non-Cysteamine treated groups. Goblet cell density in the Cysteamine treated and non-Cysteamine treated pigs was compared through visual examination using light microscope.

[8] = 150 g per ton of feed, slaughter at 85-90 kg
[9] = Test III, 6 g/head/day, p<0.05 vs Control
[10] = feed consumption, 20 head, 900 g/tonnage
[11] = in words, 900 g cysteamine HCl per tonnage of diet
[12] = relative to control, 900 g/tonnage
[13] = late phase pregnant sow, (text: 150 g per ton feed)
[14] = relative to control, (text: 150 g per ton feed)
[15] = relative to control, Dosage (text: 150 g per ton feed)
[16] = vs control, 90 g cysteamine hydrochloride per ton of feed
[17] = in words, 150 g per ton of feed

## Cl.NCCS [Cysteamine HCl, cysteamine hydrochloride]
[1]; 150 g cysteamine hydrochloride per ton of feed, slaughter at 85-90 kg, five animals
  Dressing %: 69.012%
[1]; [8]
  Lean:Fat Ratio: 0.105
  Loin Eye Area: 4.850 sq.cm
[1]; 150 g per ton of feed, slaughter at 85-90 kg, P < 0.05 vs Non-Cysteamine HCl
  Backfat Thickness: 1.91^a cm
[1]; in words
  backfat vs pigs fed diet without cysteamine hydrochloride: significantly thinner
  differences in dressing percentage, loin eye area, and lean:fat ratio vs diet without cysteamine hydrochloride: no significant differences
  loin cut and lean trimmings as a percent of the live-weight vs diets without cysteamine hydrochloride: significantly higher
[2]; Test Group III, 6 g/head/day, p<0.05 vs Control, Test Group I & II
  daily weight gain: 1.217 kg
[2]; Test I, 1.5 g/head/day
  Feed Conversion Rate (FCR), Concentrated feed: 3.54
  Feed Conversion Rate (FCR), Corn Silage: 14.14
  Feed Conversion Rate (FCR), Raw Grass: 1.21
  Final Wt.: 423.8 kg
[2]; Test II, 3 g/head/day
  Feed Conversion Rate (FCR), Concentrated feed: 3.70^a
  Feed Conversion Rate (FCR), Corn Silage: 14.42^a
  Feed Conversion Rate (FCR), Raw Grass: 1.27^a
  Final Wt.: 420.5 kg
[2]; Test III, 6 g/head/day
  Feed Conversion Rate (FCR), Raw Grass: 1.06^a
  Final Wt.: 432.7 kg
[2]; [9]
  Feed Conversion Rate (FCR), Concentrated feed: 3.09^b
  Feed Conversion Rate (FCR), Corn Silage: 12.87^b
[3]; 20 head, 900 g/tonnage
  Total feed consumption: 1019.38 kg
[3]; Dosage 900 g/tonnage
  Final weight: 28.92 kg/head
  Weight gain: 3.350 kg/head
  daily weight gain: 95.71 g/head/day
[3]; [10]
  Concentrate: 245 kg
  Hay: 350.00 kg
  Silage: 424.38 kg
[3]; [11]
  ADG vs control: statistically significant increase
[3]; [12]
  Daily weight gain, Improvement (%): 30.9%
  Silage, Improvement (%): −16.22%
  Weight gain, Improvement (%): 30.9%
[4]; difference vs control
  Birth weight per litter, Improvement: 2.50 kg
  Birth weight per piglet, Improvement: 0.23 kg/head
  Live piglet born rate, Improvement: 0.00%
[4]; difference vs control, weaning age 19 days
  Body weight of weaned piglet, Improvement: 0.46 kg/head
[4]; late phase pregnant sow, 8 sows, Dosage (text: 150 g cysteamine hydrochloride per ton feed), from 84 days of pregnant to weaning
  Total piglet born: 82 head
[4]; late phase pregnant sow, 8 sows, Dosage (text: 150 g per ton feed)
  Total live piglet born: 82 head
[4]; [13]
  Birth weight per litter: 21.32 kg
  Birth weight per piglet: 2.08 kg/head
  Live piglet born per litter: 10.29 head
  Live piglet born rate: 100.00%
[4]; late phase pregnant sow, Dosage (text: 150 g per ton feed), from 84 days of pregnant to weaning
  Piglet born per litter: 10.29 head
[4]; relative to control
  Live piglet born rate, Improvement (%): 0.00%
[4]; [14]
  Birth weight per litter, Improvement (%): 13.28%
  Birth weight per piglet, Improvement (%): 12.43%
[4]; [15]
  Birth weight per litter, Improvement (%): 13.28%
  Birth weight per piglet, Improvement (%): 12.43%
[4]; relative to control, weaning age 19 days, listed as Cysteamine
  Body weight of weaned piglet, Improvement (%): 8.00%
[4]; relative to control, weaning age 19 days, listed as cysteamine hydrochloride
  Body weight of weaned piglet, Improvement (%): 8.00%
[4]; weaning age 19 days, Dosage (text: 150 g per ton feed)
  Body weight of weaned piglet: 6.21 kg/head
[5]; 50 head
  Total feed consumption: 1076.1 kg
  Total final weight: 973 kg
  Total weight gain: 633 kg
[5]
  Daily feed consumption: 717.4 g/head
  Weight gain: 12.66 kg/head
[5]; average daily weight gain
  ADG: 422 g/head
[5]; difference vs control, 50 head
  Total feed consumption, Improvement: +66.3 kg
  Total final weight, Improvement: +75 kg
  Total weight gain, Improvement: +72.5 kg
[5]; difference vs control
  ADG, Improvement: +48 g/head
  Daily feed consumption, Improvement: +44.2 g/head
  FCR, Improvement: −0.1
  Final Wt., Improvement: +1.5 kg/head
  Weight gain, Improvement: +1.45 kg/head
[5]; feed conversion rate
  FCR: 1.70
[5]; of 50 head
  Diarrhea: 21 head
[5]; relative to control
  Diarrhea, Improvement (%): −43.24%
  FCR, Improvement (%): −5.56%
[5]; relative to control, listed as Cysteamine
  ADG, Improvement (%): 12.83%
[5]; relative to control, listed as cysteamine hydrochloride
  ADG, Improvement (%): 12.83%
[5]; [16]
  decrease in feed conversion rate (FCR): 5.56%
  improvement in diarrhea condition: 43.24%
[5]; weanling piglets, Treatment (text: 90 g cysteamine hydrochloride per ton of feed)
  Final Wt.: 19.46 kg/head
[6]; 20 head, 900 g/tonnage
  Total feed consumption: 1001.2 kg
[6]; Dosage 900 g/tonnage
  ADG: 82.29 g/head/day
  Final weight: 29.59 kg/head
  Weight gain: 2.88 kg/head
[6]; [10]
  Concentrate: 245 kg
  Hay: 350.0 kg
  Silage: 406.2 kg
[6]; [11]
  ADG vs control: statistically significant increase
[6]; [12]
  ADG, Improvement (%): 46.2%
  Silage, Improvement (%): −5.14%
  Weight gain, Improvement (%): 46.2%
[7]; 150 g of cysteamine hydrochloride per ton of feed, same letter as Non-Cysteamine (p>0.05), unit only in method b111
  Villi Length, Small Intestines: 2.15 ± 0.09^A μm
[7]; [17]
  goblet cells in the small and large intestine vs non-Cysteamine-treated: noticeably larger and highly distended
  length of small intestinal villi vs non-Cysteamine treated: longer
  number of small intestinal villi vs non-Cysteamine treated: more numerous
